Measured values reported in patent publication US9238016B2, “Antibiotic composition comprising flufenamic acid as an active ingredient” (SUNGKYUNKWAN UNIVERSITY FOUNDATION FOR CORPORATE …, priority 2010, dated 2016).
In brackets after ≈: the same amount, converted by molar mass.

Experiments:
MRSA [1] = assay: MICs of antibiotics against MRSA in the presence of flufenamic acid (synergy); format: cell-based, Staphylococcus aureus; settings: for susceptibility of MRSA to the antibiotic in the presence of FLF: with FLF (FIG. 4B, 4C)
S. aureus MSSA = assay: MIC by broth dilution method; format: cell-based; settings: Staphylococcus aureus, 24 hours of incubation
MRSA [2] = assay: Screening of Prestwick chemical library for inhibitory activity against bacteria; format: cell-based, S. aureus; settings: 100 μg/mL, 24 hours
Protocol: To screen compounds having inhibitory activity against bacteria, MRSA was 200-fold diluted in 0.2 mL of LB in 96-well microplates and cultured overnight at 37° C. with agitation at 180 RPM. Prestwick chemical library was added at a final concentration of 100 μg/mL per well. The microplates were incubated at 37° C. for 24 hours with agitation at 180 RPM and the optical density at 600 nm was measured.

SA1606 [3] = molecular target: T1, SA1606 (Staphylococcus aureus, UniProt Q2FXE2); assay: Binding affinity by isothermal titration calorimetry; parameters: species or system S. aureus; settings: ITC, 10 mM HEPES pH 7.0, 3% DMSO; read-out: dissociation constant (Kd)
T1 sequence (Q2FXE2 1-277 N135K/V136A/R184H/A227G/T230I/K274T): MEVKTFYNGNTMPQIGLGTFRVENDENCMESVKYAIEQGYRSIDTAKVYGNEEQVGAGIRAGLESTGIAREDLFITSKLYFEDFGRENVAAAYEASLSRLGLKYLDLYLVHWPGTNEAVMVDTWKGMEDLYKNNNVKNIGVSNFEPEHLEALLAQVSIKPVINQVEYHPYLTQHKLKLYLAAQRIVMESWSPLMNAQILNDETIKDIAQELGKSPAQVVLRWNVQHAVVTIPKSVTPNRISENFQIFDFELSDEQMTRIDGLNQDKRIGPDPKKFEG
Excerpt: (§1) Genes of SA1606 (GenBank number: BAB42874) and […] (GenBank number: BAB43292) were amplified using PCR with the genomic DNA of S. aureus N315 serving as a template. PCR primers were 5′-[…] […]-3′ (SEQ ID NO: 4) and 5′-[…]-3′ (SEQ ID NO: 5) for SA1606, and 5′-[…]-3′ (SEQ ID NO: 6) and 5′-5 […]-3′ (SEQ ID NO: 7) for SA2001. Ncol and Xhol restriction sites were incorporated into the forward primer sequences and the reverse primer sequences, respectively. The PCR products were digested with Ncol and Xhol and inserted into Ncol/Xhol-digested pET28a vectors (Novagen). The DNAs 10 thus ligated were transformed into E. coli BL21 DE3 (Invitrogen). Coding sequences of the cloned genes SA1606 and SA2001 were confirmed by nucleotide sequencing. Recombinant SA1606 and SA2001 with histidine tag at the C-terminus were expressed in E. coli and then loaded into Hi-Trap chelating 15 columns (GE Healthcare) equilibrated with buffer A (20 mM HEPES, pH 7.5, 50 mM imadazole and 500 mM NaCl). […]
(§2) Binding affinity for SA1606 and SA2001 of FLF was measured using VP-ITC Micro calorimeter (MicroCal Inc). […] Thereafter, the affinity of FLF for the proteins were calculated on the basis of the heat generated upon the binding of FLF to the proteins. The data was analyzed with ORIGIN software (MicroCal Inc).

SA2001 [4] = molecular target: T2, SA2001 (Staphylococcus aureus, UniProt Q2FW57, N2D); assay: as above; parameters: species or system S. aureus; settings: ITC, 10 mM HEPES pH 7.0, 3% DMSO; read-out: dissociation constant (Kd)
T2 sequence (Q2FW57 1-279 N2D): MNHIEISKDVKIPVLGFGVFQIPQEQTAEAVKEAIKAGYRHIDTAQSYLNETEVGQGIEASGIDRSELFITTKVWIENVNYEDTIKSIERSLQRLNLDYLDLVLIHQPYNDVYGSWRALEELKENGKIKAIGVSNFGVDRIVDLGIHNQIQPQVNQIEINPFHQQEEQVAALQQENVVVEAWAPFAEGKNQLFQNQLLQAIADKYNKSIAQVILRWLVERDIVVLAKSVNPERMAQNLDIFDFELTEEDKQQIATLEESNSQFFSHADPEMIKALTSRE
Excerpt: as §1, §2

Bacillus subtilis = assay: Growth inhibition, cell density OD 600 nm; format: cell-based; settings: 20~40 μg/mL FLF, 8 hours
Protocol: (§3) FLF was examined for inhibitory activity against various bacteria. Staphylococcus epidermidis, Bacillus subtilis, Listeria monocytogenes and Enterococcus faecium were cultured overnight and 200-fold diluted in 2 mL of LB containing various concentrations of FLF. Cell densities were determined by measuring the OD at 600 nm after incubation at 37° C. for 8 hours. The MICs of FLF were determined using a broth dilution method. In brief, bacteria were inoculated into LB containing serially diluted concentrations of FLF in 96-well microplates. After 24 hours of incubation, bacterial growth was examined. Antibacterial activity of FLF was tested over various Gram-positive bacteria including Staphylococcus epidermidis, Bacillus subtilis, Listeria monocytogenes, and Enterococcus faecium.

Enterococcus faecium = assay: Growth inhibition, cell density OD 600 nm; format: cell-based; settings: 20~40 μg/mL FLF, 8 hours
Protocol: as §3

[5] = test system: Staphylococcus epidermidis; assay: Growth inhibition, cell density OD 600 nm; format: cell-based; settings: 20~40 μg/mL FLF, 8 hours
Protocol: as §3

Listeria monocytogenes = assay: Growth inhibition, cell density OD 600 nm; format: cell-based; settings: 20~40 μg/mL FLF, 8 hours
Protocol: as §3

SA1606 [6] = molecular target: T1, SA1606; assay: Aldo-keto reductase enzymatic assay (NADPH absorbance 340 nm, methylglyoxal); format: biochemical, S. aureus; settings: 0.5 mM NADPH, 5 mM methylglyoxal, 10 μM enzyme, pH 7.0
Protocol: (§4) Aldo-keto reductase (AKR) activity was measured to examine whether FLF inhibits the enzymatic activities of SA1606 and SA2001 on the basis of the data of Example 8 showing the binding of FLF to SA16006 and SA2001. On the whole, bacterial AKR catalyzes the reduction of various chemicals with NADPH. […] As is evidenced in Example 6, SA1606 and SA2001 have structural and functional similarity with the human aldo-keto reductase AKR1C3 and the bacterial aldo-keto reductase DkgA. Thus, the enzymatic activity of […] was measured to analyze the inhibitory activity of FLF. The reaction for evaluating enzymatic activity was comprised of 0.5 mM NADPH, 5 mM methylglyoxal and 10 μM aldo-keto reductase in 50 mM sodium phosphate buffer, pH 7.0. Absorbance at 340 nm of the reaction was measured for 10 min to calculate the consumption of NADPH.

SA2001 [7] = molecular target: T3, SA2001 (Staphylococcus aureus, UniProt Q2FW57); assay: as above; format: biochemical, S. aureus; settings: 0.5 mM NADPH, 5 mM methylglyoxal, 10 μM enzyme, pH 7.0
T3 sequence (Q2FW57 1-279 N2D): T2 sequence (Q2FW57 1-279 N2D)
Protocol: as §4

B. subtilis = assay: MIC by broth dilution method; format: cell-based; settings: Bacillus subtilis, 24 hours of incubation
Protocol: as §3

L. monocytogenes = assay: MIC by broth dilution method; format: cell-based; settings: Listeria monocytogenes, 24 hours of incubation
Protocol: as §3

E. faecium = assay: MIC by broth dilution method; format: cell-based; settings: Enterococcus faecium, 24 hours of incubation
Protocol: as §3

S. epidermidis = assay: MIC by broth dilution method; format: cell-based; settings: Staphylococcus epidermidis, 24 hours of incubation
Protocol: as §3

[8] = test system: Methicillin-resistant Staphylococcus aureus (MRSA); assay: Growth inhibition, cell density OD 600 nm; format: cell-based; settings: 8 h, read-out: growth inhibited
Protocol: (§5) FLF was assayed for inhibitory activity against Methicillin-resistant staphylococcus aureus (MRSA). In this regard, Methicillin-resistant Staphylococcus aureus (MRSA) was cultured overnight and 200-fold diluted in 2 mL of LB containing various concentrations of FLF. After additional incubation at 37° C. for 8 hours, cell densities were measured by recoding OD at 600 nm.

S. aureus MRSA = assay: MIC by broth dilution method; format: cell-based, Staphylococcus aureus
Protocol: as §5, §3

Question: What does the source list for `CC(=O)OCC1=C(C(=O)O)N2C(=O)[C@@H](NC(=O)Cc3cccs3)[C@H]2SC1` [Cephalothin]?
Answer: MICs of antibiotic against MRSA (MRSA [1]; 10 μg/ml FLF): 128 µg/mL; MICs of antibiotic against MRSA (MRSA [1]; 20 μg/ml FLF): 64 µg/mL; MICs of antibiotic against MRSA (MRSA [1]; 30 μg/ml FLF): 16 µg/mL; MICs of antibiotic against MRSA (MRSA [1]; 40 μg/ml FLF): 4 µg/mL; MICs of antibiotic against MRSA (MRSA [1]; No FLF): 128 µg/mL; susceptibility of MRSA to the antibiotic in the presence of FLF (MRSA [1]): far more susceptible

Question: For `O=C(O)c1ccccc1Nc1cccc(C(F)(F)F)c1` [FLF, flufenamic acid], which MIC (S. aureus MSSA) is on record?
Answer: Its MIC is 64 mg/L (≈ 228 µM).

Question: What about the “synergistic effect with classical antibiotics” value (MRSA [1]; FLF in combination with Norfloxacin, Oxacillin or Cephalothin, MRSA) of the same molecule?
Answer: The value was “synergistically inhibited”.

Question: And the “inhibitory activity against bacteria (OD 600 nm) in library screen” value (MRSA [2])?
Answer: The value was “most inhibitory”.

Question: What about the Kd (SA1606 [3]) of the same molecule?
Answer: The Kd was 14.5 µM.

Question: And the Kd (SA2001 [4])?
Answer: The Kd was 38.1 µM.

Question: What about the growth inhibited (Bacillus subtilis) of the same molecule?
Answer: The growth inhibited was 90%.

Question: What about the growth inhibited (Enterococcus faecium) of the same molecule?
Answer: Its growth inhibited is 90%.

Question: What about the growth inhibited [5] of the same molecule?
Answer: Its growth inhibited is 90%.

Question: And the growth inhibited (Listeria monocytogenes)?
Answer: The growth inhibited was 90%.

Question: What about the “enzymatic activity (reduction of methylglyoxal with NADPH) in the presence of FLF” value (SA1606 [6]) of the same molecule?
Answer: The value was “inhibited”.

Question: And the “enzymatic activity (reduction of methylglyoxal with NADPH) in the presence of FLF” value (SA2001 [7])?
Answer: Its value is “inhibited”.

Question: And the MIC (B. subtilis)?
Answer: The MIC was 32 mg/L (≈ 114 µM).

Question: What about the MIC (L. monocytogenes) of the same molecule?
Answer: Its MIC is 32 mg/L (≈ 114 µM).

Question: And the MIC (E. faecium)?
Answer: The MIC was 32 mg/L (≈ 114 µM).

Question: And the MIC (S. epidermidis)?
Answer: Its MIC is 64 mg/L (≈ 228 µM).

Question: What about the inhibition at 40 µg/mL [8] of the same molecule?
Answer: Its inhibition at 40 µg/mL is 90%.

Question: And the MICs (S. aureus MRSA; S. aureus MRSA, 24 hours of incubation)?
Answer: Its MICs is 64 µg/mL.

Question: And the MIC (S. aureus MRSA; Staphylococcus aureus, MRSA, 24 h, read-out: MICs)?
Answer: The MIC was 64 mg/L (≈ 228 µM).

Question: What does the source list for `CCn1cc(C(=O)O)c(=O)c2cc(F)c(N3CCNCC3)cc21` [Norfloxacin]?
Answer: MICs of antibiotic against MRSA (MRSA [1]; 10 μg/ml FLF): 64 µg/mL; MICs of antibiotic against MRSA (MRSA [1]; 20 μg/ml FLF): 32 µg/mL; MICs of antibiotic against MRSA (MRSA [1]; 30 μg/ml FLF): 16 µg/mL; MICs of antibiotic against MRSA (MRSA [1]; 40 μg/ml FLF): 8 µg/mL; MICs of antibiotic against MRSA (MRSA [1]; No FLF): 128 µg/mL

Question: `Cc1onc(-c2ccccc2)c1C(=O)N[C@@H]1C(=O)N2[C@@H]1SC(C)(C)[C@@H]2C(=O)O` [Oxacillin] was tested. Which “MICs of antibiotic against MRSA” value (MRSA [1]; 10 μg/ml FLF) did it give?
Answer: Its value is 256 µg/mL.

Question: And the “MICs of antibiotic against MRSA” value (MRSA [1]; 30 μg/ml FLF)?
Answer: Its value is 32 µg/mL.

Question: What about the “MICs of antibiotic against MRSA” value (MRSA [1]; 40 μg/ml FLF) of the same molecule?
Answer: Its value is 8 µg/mL.

Question: What about the “MICs of antibiotic against MRSA” value (MRSA [1]; No FLF) of the same molecule?
Answer: The value was >256 µg/mL.

Question: And the “susceptibility of MRSA to the antibiotic in the presence of FLF” value (MRSA [1])?
Answer: The value was “far more susceptible”.
